From ChEMBL document CHEMBL1138996, “Biological evaluation of isothiazoloquinolones containing aromatic heterocycles at the 7-position: In vitro activity of a series of potent antibacterial agents that are effective against methicillin-resistant Staphylococcus aureus” (Bioorg Med Chem Lett, 2006) come the findings set out here.

The test system of test [1] is Staphylococcus aureus. Description: Antibacterial activity against Staphylococcus aureus ATCC 29213. The test is classed as functional.
Test [2] relates to Staphylococcus aureus. Description: Antibacterial activity against methicillin-resistant Staphylococcus aureus ATCC 700699. It counts as functional.
In test [3] the test system is HEp-2. Description: Cytotoxicity against Hep2 cell line. It counts as functional. The following applies: Homo sapiens.
Test [4] concerns the target DNA topoisomerase 4 subunit A (Staphylococcus aureus, UniProt P0C1U9). Description: Inhibitory activity against Staphylococcus aureus ATCC 29213 wild type Topo 4.
Test [5] relates to Escherichia coli. Description: Antibacterial activity against Escherichia coli ATCC 25922. The test is classed as functional.

The structures appear in SMILES notation. Values after ≈ are worked out from the molar mass of the structure shown.

The MIC is the least concentration at which growth counts as inhibited. Higher therefore signals a less susceptible organism. Usually CC50 stands for the concentration giving 50% cytotoxicity. Low values mean harm at low concentration, high ones better tolerance by the cells. One may read the IC50 as the concentration needed to halve the response being measured. Lower therefore signals higher potency.

Sequence of DNA topoisomerase 4 subunit A (P0C1U9 whole entry): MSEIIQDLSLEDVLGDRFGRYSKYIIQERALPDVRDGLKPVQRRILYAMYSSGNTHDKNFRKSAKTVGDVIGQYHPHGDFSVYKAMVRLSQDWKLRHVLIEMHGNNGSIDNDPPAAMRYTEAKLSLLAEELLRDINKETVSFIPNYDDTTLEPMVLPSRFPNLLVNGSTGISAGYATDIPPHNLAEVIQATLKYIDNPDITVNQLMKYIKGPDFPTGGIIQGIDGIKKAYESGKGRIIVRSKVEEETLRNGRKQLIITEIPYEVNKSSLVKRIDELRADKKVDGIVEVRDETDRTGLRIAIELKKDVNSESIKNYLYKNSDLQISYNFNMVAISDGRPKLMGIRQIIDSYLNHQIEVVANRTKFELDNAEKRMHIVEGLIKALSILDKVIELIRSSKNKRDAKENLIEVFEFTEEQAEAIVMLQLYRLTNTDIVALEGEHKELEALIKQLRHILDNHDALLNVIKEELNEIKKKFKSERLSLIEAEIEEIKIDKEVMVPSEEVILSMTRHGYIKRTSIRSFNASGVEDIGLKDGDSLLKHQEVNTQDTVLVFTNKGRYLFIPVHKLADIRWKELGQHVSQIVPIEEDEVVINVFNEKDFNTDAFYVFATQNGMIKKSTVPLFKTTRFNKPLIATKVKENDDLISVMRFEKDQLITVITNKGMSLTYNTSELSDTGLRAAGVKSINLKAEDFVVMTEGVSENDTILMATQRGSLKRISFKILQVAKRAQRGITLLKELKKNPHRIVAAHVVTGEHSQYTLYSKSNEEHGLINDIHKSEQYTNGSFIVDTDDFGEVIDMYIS

Turning to `O=c1[nH]sc2c1c(=O)c1cc(F)c(-c3cncnc3)cc1n2C1CC1`, the MIC stood at 0.025 µg/mL (≈ 0.0705 µM) in test [1], 8 µg/mL (≈ 22.6 µM) in test [2] and 0.12 µg/mL (≈ 0.339 µM) in test [5]. This compound gave a CC50 in test [3] of 18 µM. In addition, the midpoint of inhibition in test [4], the IC50, lay at 3.3 µM.
The matching figures for `Cc1ccc(-c2cc3c(cc2F)c(=O)c2c(=O)[nH]sc2n3C2CC2)c(C)n1`: 0.13 µg/mL (≈ 0.341 µM), over 64 µg/mL, 0.5 µg/mL (≈ 1.31 µM), over 100 µM and 8 µM.
For the compound `NCc1ccc(-c2cc3c(cc2F)c(=O)c2c(=O)[nH]sc2n3C2CC2)cn1`, the figures for the minimum inhibitory concentration (MIC) in test [1], in test [2] and in test [5] were 0.13 µg/mL (≈ 0.34 µM), 32 µg/mL (≈ 83.7 µM) and 0.059 µg/mL (≈ 0.154 µM), respectively. Also, the CC50 in test [3] was over 100 µM. The compound also displayed an IC50 in test [4] of 0.7 µM.
Take `O=c1[nH]sc2c1c(=O)c1cc(F)c(-c3cccc4cnccc34)cc1n2C1CC1`: the MIC is 0.016 µg/mL (≈ 0.0397 µM) in test [1], over 64 µg/mL in test [2] and 0.061 µg/mL (≈ 0.151 µM) in test [5]. Also, in test [3], the CC50 worked out at 45 µM. Further, half-maximal inhibition in test [4] (IC50) was put at 23 µM.
As to `O=c1[nH]sc2c1c(=O)c1cc(F)c(-c3cccc4cccnc34)cc1n2C1CC1`, the figures for the MIC in test [1], in test [2] and in test [5] were 0.13 µg/mL (≈ 0.322 µM), 16 µg/mL (≈ 39.7 µM) and 0.75 µg/mL (≈ 1.86 µM), respectively. In test [3], this compound showed a 50% cytotoxic concentration (CC50) of 79 µM. The IC50 in test [4] is over 40 µM.
In the same order, the values of `COc1cncc(-c2cc3c(cc2F)c(=O)c2c(=O)[nH]sc2n3C2CC2)c1` are 0.03 µg/mL (≈ 0.0782 µM), 4 µg/mL (≈ 10.4 µM), 0.061 µg/mL (≈ 0.159 µM), 34 µM and 21 µM.
The matching figures for `COc1ccc(-c2cc3c(cc2F)c(=O)c2c(=O)[nH]sc2n3C2CC2)cn1`: 0.023 µg/mL (≈ 0.06 µM), 16 µg/mL (≈ 41.7 µM), 0.015 µg/mL (≈ 0.0391 µM), over 100 µM and 26 µM.
As for `O=c1[nH]sc2c1c(=O)c1cc(F)c(-c3ccc(-n4cccc4)nc3)cc1n2C1CC1`, the MIC came to 0.029 µg/mL (≈ 0.0693 µM) in test [1], 4 µg/mL (≈ 9.56 µM) in test [2] and 1 µg/mL (≈ 2.39 µM) in test [5]. The same compound gave a CC50 in test [3] of over 100 µM. The concentration for half-maximal inhibition (IC50) in test [4] worked out at 18 µM.
Take `O=c1[nH]sc2c1c(=O)c1cc(F)c(-c3ccnc(F)c3)cc1n2C1CC1`: the MIC in test [1] was found to be 0.0074 µg/mL (≈ 0.0199 µM); in test [2] it was 1 µg/mL (≈ 2.69 µM); in test [5] it was 0.059 µg/mL (≈ 0.159 µM). Besides, the CC50 in test [3] is over 100 µM. Further, the IC50 in test [4] worked out at 19 µM.
In the case of `Cc1cc(-c2cc3c(cc2F)c(=O)c2c(=O)[nH]sc2n3C2CC2)cc(C)n1`, the MIC came out at 0.0038 µg/mL (≈ 0.00996 µM) in test [1], 0.25 µg/mL (≈ 0.655 µM) in test [2] and 0.031 µg/mL (≈ 0.0813 µM) in test [5]. This compound returned a CC50 in test [3] of 50 µM. This compound registered a half-maximal inhibitory concentration (IC50) in test [4] of 48 µM.
The matching figures for `O=c1[nH]sc2c1c(=O)c1cc(F)c(-c3cnc4ccccc4c3)cc1n2C1CC1`: 0.011 µg/mL (≈ 0.0273 µM), 8 µg/mL (≈ 19.8 µM), 0.13 µg/mL (≈ 0.322 µM), over 100 µM and 50 µM.
The matching figures for `Cc1ccc(-c2cc3c(cc2F)c(=O)c2c(=O)[nH]sc2n3C2CC2)nc1`: 0.044 µg/mL (≈ 0.12 µM), 32 µg/mL (≈ 87.1 µM), 0.12 µg/mL (≈ 0.327 µM), 51 µM and 14 µM.
As to `Cn1ccc2cc(-c3cc4c(cc3F)c(=O)c3c(=O)[nH]sc3n4C3CC3)ccc21`, the MIC in test [1] came out at 0.065 µg/mL (≈ 0.16 µM); in test [2] it was 8 µg/mL (≈ 19.7 µM); in test [5], 1 µg/mL (≈ 2.47 µM). Also, the CC50 in test [3] is over 100 µM. Besides, in test [4], the IC50 was determined as 3.6 µM.
For the compound `O=c1[nH]sc2c1c(=O)c1cc(F)c(-c3ccc4ncccc4c3)cc1n2C1CC1`, the MIC in test [1] is 0.0032 µg/mL (≈ 0.00793 µM); in test [2], 1 µg/mL (≈ 2.48 µM); in test [5], 0.13 µg/mL (≈ 0.322 µM). Besides, in test [3], the CC50 was over 100 µM. The compound also showed an IC50 in test [4] of 3.2 µM.
Regarding `COc1ncc(-c2cc3c(cc2F)c(=O)c2c(=O)[nH]sc2n3C2CC2)cn1`, the MIC in test [1] was 0.015 µg/mL (≈ 0.039 µM); in test [2], 8 µg/mL (≈ 20.8 µM); in test [5] it was 0.13 µg/mL (≈ 0.338 µM). In test [3], this compound gave a CC50 of 43 µM. In test [4], this compound yielded an IC50 of 3.3 µM.
The matching figures for `COc1ccncc1-c1cc2c(cc1F)c(=O)c1c(=O)[nH]sc1n2C1CC1`: 0.023 µg/mL (≈ 0.06 µM), 4 µg/mL (≈ 10.4 µM), 0.25 µg/mL (≈ 0.652 µM), 50 µM and 10 µM.
Turning to `O=c1[nH]sc2c1c(=O)c1cc(F)c(-c3cncc(C4CCCN4)c3)cc1n2C1CC1` (centres undefined), the MIC in test [1] stood at 0.06 µg/mL (≈ 0.142 µM); in test [2], 8 µg/mL (≈ 18.9 µM); in test [5], 0.12 µg/mL (≈ 0.284 µM). The compound also returned a cytotoxic concentration (CC50) in test [3] of 25 µM. This compound returned a half-inhibitory concentration (IC50) in test [4] of 1.1 µM.
As to `O=c1[nH]sc2c1c(=O)c1cc(F)c(-c3cccnc3F)cc1n2C1CC1`, the minimal inhibitory concentration (MIC) in test [1] and in test [5] was 0.015 µg/mL (≈ 0.0404 µM) throughout. Moreover, in test [3], the cytotoxic concentration (CC50) is over 100 µM. Besides, the IC50 in test [4] was found to be 2.4 µM.
